# According to ChEMBL document CHEMBL6115026, “Synthesis and Biological Evaluation of Peripheral 5HT2B Antagonists for Liver Fibrosis” (J Med Chem, 2025):
# pIC50: −log10 of the molar value.
# Experiments:
# [1] = Drug concentration in male mouse brain at 5 mg/kg, ip measured after 0.5 hrs; type: ADME, organism-based; conditions: read-out: Ct
# [2] = Drug concentration in male mouse plasma at 5 mg/kg, ip measured after 0.5 hrs; type: ADME, organism-based
# [3] = target: T1, 5-hydroxytryptamine receptor 2B (Homo sapiens, UniProt P41595); test: (§1) Antagonist activity at 5HT2B (unknown origin) expressed in FRT cells co-expressing ANO1 and YFP assessed as inhibition of 5HT-induced increase in iodide influx preincubated with compound for 10 mins followed by 5-HT addition and measured after 8 sec by YFP fluorescence quenching analysis; type: cell-based
# [4] = target: T1, 5-hydroxytryptamine receptor 2B; test: as §1, with “influx at 1 uM” for “influx”, “analysis relative to control” for “analysis”; type: cell-based; conditions: time 608.0 sec
# [5] = Ratio of drug concentration in male mouse brain to plasma at 5 mg/kg, ip measured after 0.5 hrs; type: ADME, organism-based; conditions: brain and plasma, read-out: BPR
# T1 sequence (P41595 whole entry): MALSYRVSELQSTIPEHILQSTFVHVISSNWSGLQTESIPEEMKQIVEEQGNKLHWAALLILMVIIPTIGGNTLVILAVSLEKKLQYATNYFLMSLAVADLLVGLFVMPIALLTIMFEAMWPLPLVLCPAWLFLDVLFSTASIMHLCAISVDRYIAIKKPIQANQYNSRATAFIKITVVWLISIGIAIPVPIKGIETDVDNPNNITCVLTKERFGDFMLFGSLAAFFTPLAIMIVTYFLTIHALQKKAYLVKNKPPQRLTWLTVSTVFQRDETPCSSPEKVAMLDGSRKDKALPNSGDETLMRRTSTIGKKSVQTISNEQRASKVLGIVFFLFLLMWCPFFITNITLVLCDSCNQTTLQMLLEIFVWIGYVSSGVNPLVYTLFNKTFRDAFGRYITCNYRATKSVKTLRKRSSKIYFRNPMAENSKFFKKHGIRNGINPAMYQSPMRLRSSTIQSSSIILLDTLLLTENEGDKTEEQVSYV
inhibition ([4]; filed as antagonist) [%],SMILES,also measured
98.8,COc1ccc(S(=O)(=O)N[C@H]2CCOC2)cc1C(=O)Nc1ccccc1Cl,concentration at 0.5 h [1]: 51.7 ng/g; concentration at 0.5 h [2]: 99.2 ng/mL; pIC50 [3]: 8.74; Kp at 0.5 h [5]: 0.53
,COc1ccc(S(=O)(=O)N[C@H]2CCOC2)cc1C(=O)Nc1ccccc1N,inhibition [4]: 32.8%
96.1,COc1ccc(S(=O)(=O)N[C@H]2CCN(C(=O)OC(C)(C)C)C2)cc1C(=O)Nc1ccccc1Cl,
94.5,COc1ccc(S(=O)(=O)N[C@H]2CCN(C(=O)[C@@H](N)CCC(=O)O)C2)cc1C(=O)Nc1ccccc1Cl,pIC50 [3]: 8.14
100,COc1ccc(S(=O)(=O)N[C@@H]2CCN(C(=O)C[C@H](N)C(=O)O)C2)cc1C(=O)Nc1ccccc1Cl,
,COc1ccc(S(=O)(=O)N[C@H]2CCOC2)cc1C(=O)Nc1ccccc1N1CCNCC1,inhibition [4]: 15%
99,COc1ccc(S(=O)(=O)N[C@@H]2CCN(C(=O)OC(C)(C)C)C2)cc1C(=O)Nc1ccccc1Cl,
47.1,COc1ccc(S(=O)(=O)NC2CCN(C(=O)OC(C)(C)C)CC2)cc1C(=O)Nc1ccccc1Cl,
96.3,COc1ccc(S(=O)(=O)NC2CCNCC2)cc1C(=O)Nc1ccccc1Cl,
